“Also recorded” adds a separate entry of the source. Ends that are not written are not given here.
Legend:
six NKR isoforms = test: Functional activation of the six grass carp NKR isoforms, NFAT-Luc reporter in HEK293T cells; type: cell-based, grass carp (Ctenopharyngodon idellus); conditions: 24 h
Experimental: To clarify the receptor selectivity of TAC4 gene products, a transfection experiment was conducted in HEK293T cells, and the fluorescent signal was detected by the firefly luciferase reporter gene detection kit. Firstly, the cDNA sequences of neurokinin receptor 1 isoforms a (NK1Ra), neurokinin receptor 1 isoforms b (NK1Rb), NK2R, neurokinin receptor 3 isoforms a1 (NK3Ra1), neurokinin receptor 3 isoforms a2 (NK3Ra2), and neurokinin receptor 3 isoforms b (NK3Rb) were isolated from grass carp pituitary, and the coding region of the six receptors were then subcloned into the eukaryotic expression vector pcDNA3.1. Secondly, the HEK293T cells were co-transfected with the plasmids of NFAT-Luc (Nuclear factor of activated T cells-luciferase), green fluorescent protein (GFP), and each pcDNA3.1-NKRs by using Lipofectamine 3000 (Thermo Fisher). The transfected HEK293T cells were incubated with various concentration HK-1 (1–10,000 nM), HK-2 (1–10,000 nM), or HK1-V7F (1–10,000 nM) for 24 h, respectively. Finally, the transfected cells were collected to detect the luciferase value according to the instructions of the firefly luciferase reporter gene detection kit.
To clarify the receptor selectivity of HK1 and HK2 for the six NKRs, HEK-293T cell lines were established to stably express NK1Ra, NK1Rb, NK2R, NK3Rb, NK3Ra1, or NK3Ra2 were established, respectively. The cells were then used for transfection study with NFAT-Luc vectors, which was allowed for functional evaluation of the activation status of Ca^2+-dependent pathway.
Figure 2 Receptor selectivity of HK1, HK2, and HK1-V7F. The nuclear factor of activated T-cells (NFAT)-Luc reporter together with NK1Ra, NK1Rb, NK2R, NK3Rb, NK3Ra1, or NK3Ra2, were transiently transfected into HEK-293 cells, respectively. The cells were incubated with increasing levels of grass carp HK1, HK2, or HK1-V7F (0.1–1000 nM), respectively. The luciferase activities were normalized against renilla expression in the same sample to adjust for potential variations in transfection efficiency. Each point is determined quadruplicate and is given as a mean ± SEM. The groups denoted by different letters represent significant differences at p-value < 0.05 (ANOVA followed Dunnett’s test).

[1] = tested on: grass carp pituitary cells; test: RT-qPCR of pituitary gene mRNA expression after peptide treatment of grass carp pituitary cells; type: cell-based, grass carp (Ctenopharyngodon idellus); conditions: 0.1–1000 nM, 24 h
Text: To further confirm the pituitary actions of HKs in grass carp, trypsin digestion method was used to prepare for grass carp primary cultured pituitary cells. […] After drug treatment, total RNA was extracted from adherent cells by Trizol, and then subjected to reverse transcription using HifairTM III 1st Strand cDNA Synthesis Kit (Yeasen, Shanghai, China). In the present study, β-actin was used as the internal reference gene, and then, the transcript levels of PRL, SLα, CART2, UTS1, and NMB1 were detected by using a ABI 7500 real-time PCR system (see Supplementary Table S2 for primer sequences and PCR condition). In addition, the plasmid DNA containing the gene coding sequence was serially diluted as a standard for data calibration.
In this study, RT-qPCR was used to detect mRNA expression for TAC4, NKRs, PRL, SLα, CART2, UTS1, SN2, and NMB1. In the ABI7500 software, the dynamic mRNA concentration detection range of the double standard curve is 10^5, and the correlation coefficient is >0.95. […] In the transfection experiment, the detected firefly luciferase activity was routinely normalized with the GFP activity expressed in the same well, expressed as the luciferin activity ratio Luc ratio. The data from four parallel experiments was presented as mean ± SEM in the figure. All the data were analyzed by ANOVA, and then subjected to Dunnett’s test in GraphPad Prism 7.0. The significant differences between groups were indicated by p < 0.05.
Figure 5 TAC4 gene products (HK1 and HK2) induced PRL (A) and SLα (B) mRNA expression in grass carp pituitary cells. Time course of grass carp HK1 (1 μM) and HK2 (1 μM) on PRL (A) and SLα (B) mRNA expression in grass carp pituitary cells. Dose-dependence of 24-h treatment with increasing levels of HK1 and HK2 (0.1–1000 nM) on PRL (A) and SLα (B) mRNA expression in grass carp pituitary cells. After drug treatment, the total RNA of the cells was extracted by the Trizol method, and the expression of various genes was detected by RT-PCR. Data presented were expressed as mean ± SEM, and the differences between groups were significant at p-value < 0.05 by labeling diverse letters.
Figure 6 TAC4 gene products (HK1 and HK2) induced CART2, NMB1, and UTS1 mRNA expression in grass carp pituitary cells. Time course of grass carp HK1 (1 μM) and HK2 (1 μM) on CART2 (A), NMB1 (B), and UTS1 (C) mRNA expression in grass carp pituitary cells. Dose-dependence of 24-h treatment with increasing levels of HK1 or HK2 (0.1–1000 nM) on CART2 (A), NMB1 (B), and UTS1 (C) mRNA expression in grass carp pituitary cells. After drug treatment, the total RNA of the cells was extracted by the Trizol method, and the expression of various genes were detected by RT-PCR. Data presented were expressed as mean ± SEM, and the differences between groups were significant at p-value < 0.05 by labeling diverse letters.
Figure 9 Phe to Val mutation in FXGLM motif in PRL, SLα, and UTS1 regulation by HK2 in grass carp pituitary cells. (A) Effects of HK1-V7F on PRL, SLα, and UTS1 mRNA expression in grass carp pituitary cells. In this experiment, grass carp pituitary cells were incubated for 24 h with increasing levels of HK1-V7F (0.1–1000 nM). (B) Suppressed effects of HK1 on HK2-induced PRL, SLα, and UTS1 mRNA expression in grass carp pituitary cells. Pituitary cells were challenged for 24 h with grass carp HK2 (0.1 µM) in the presence or absence of HK1 (1 µM) and HK1 (10 µM). In these experiment, Trizol method was used to extract total cell RNA, and RT-PCR was used to detect PRL, SLα, and UTS1 mRNA expression. Data presented are expressed as mean ± SEM, and the differences between groups were significant at p-value < 0.05 by labeling diverse letters.

carp NK2R = tested on: carp NK2R; set-up: method as in PMID 28323939; conditions: cited from earlier work
Text: In mammals, the biological action of tachykinins is mediated by three GPCRs, namely NK1R, NK2R, and NK3R, which are stimulated preferentially by SP, NKA, and NKB, respectively. […] In the present study, due to the third round whole-genome duplication, 6 NKRs were detected in grass carp, namely NK1Ra, NK1Rb, NK2R, NK3Ra1, NK3Ra2, and NK3Rb, respectively. Based on the ...

carp pituitary cells = conditions: cited from earlier work; for LHβ secretion / PRL and SLα transcriptional levels / PRL secretion / SLα secretion: pituitary cells of carp
Text: In mammals, the tachykinin (TAC) family includes three members, namely tachykinin 1 (TAC1), tachykinin 3 (TAC3) (tachykinin 2 (TAC2) in rodents), and TAC4, respectively. Among them, TAC1 gene encodes substance P (SP) and neurokinin A (NKA). SP is known to be involved in the regulation of pain control/injury, neurogenicinflammation and obesity with mammals. Compared with mammals, teleost have undergone an additional genome duplication during evolution, which is called fish-specific genome duplication (FSGD) or the 3R hypothesis. […] The resear ... || In mammals, many studies have focused on the actions of hemokinin on immunological regulation and inflammation. However, little information is available about its endocrinology function. […] Similar resu ... || (+ 1 further places)

rats = tested on: rats; set-up: method as in 2 sources, ref 26, 51 = [26]; PMID 19854230; doi:10.1016/j.peptides.2009.10.013; 26. Yang Y. Dong S. Effects of Endokinin A/B and Endokinin C/D on the modulation of pain in mice Peptides 2010 31 94 100 10.1016/j.peptides.2009.10.013 19854230 || [51]; PMID 12524318; doi:10.1016/S0006-3495(03)74885-1; 51. Grace R.C. Chandrashekar I.R. Cowsik S.M. Solution structure of the tachyk-inin peptide eledoisin Biophys. J. 2003 84 655 664 10.1016/S0006-3495(03)74885-1 12524318 PMC1302646 ||| ref 26, 53, 54 = [26]; PMID 19854230; doi:10.1016/j.peptides.2009.10.013; 26. Yang Y. Dong S. Effects of Endokinin A/B and Endokinin C/D on the modulation of pain in mice Peptides 2010 31 94 100 10.1016/j.peptides.2009.10.013 19854230 || [53]; PMID 17655832; doi:10.1016/j.brainres.2007.05.062; 53. Naono R. Nakayama T. Ikeda T. Matsushima O. Nishimori T. Leucine at the carboxyl-terminal of endokinins C and D contributes to elicitation of the antagonistic effect on substance P in rat pain pro || [54]; PMID 17101218; doi:10.1016/j.neulet.2006.09.024; 54. Yoshioka D. Takebuchi F. Nishimori T. Naono R. Ikeda T. Nakayama T. Intrathecal administration of the common carboxyl-terminal decapeptide in end-okinin A and endokinin B evokes scratching behavio; conditions: cited from earlier work; for pain-related behaviors: central administration, scratching, paw withdrawal, thermal hyperalgesia; for effect on SP- or EKA/B-induced pain-related behaviors: simultaneous treatment
[2] = tested on: sexually mature female zebrafish; conditions: intraperitoneal injection; cited from earlier work
Text: In mammals, TAC3 encodes neurokinin B (NKB), is known to be involved in the regulation of smooth muscles of the gastrointestinal tract, secretion of intestinal epithelial fluid, vasodilation, and stimulating sperm motility. […] The resear ...

mammals = tested on: mammals; set-up: method as in PMID 18337115; conditions: cited from earlier work
[3] = set-up: method as in PMID 20233609, PMID 23317790; conditions: cited from earlier work

## TPGLQQFFGLM-NH2 [HK1-V7F, Val to Phe mutant of HK1, …-NH2]
Six NKR isoforms; HEK-293T expressing each NKR
  ED50, NFAT-Luc luciferase activity, NKR isoforms (in words): nanomolar dose range
Six NKR isoforms; NFAT-Luc luciferase, HEK293T, NK1Ra, NK1Rb, NK2R, NK3Ra1, NK3Ra2, NK3Rb
  activation of the six NKR isoforms (in words): notably enhanced
[1]
  PRL mRNA expression, HK1-V7F dose-response: levels comparable to that induced by HK2
  SLα mRNA expression, HK1-V7F dose-response: levels comparable to that induced by HK2; also recorded: markedly enhanced to the levels for HK2
  UTS1 mRNA expression, HK1-V7F dose-response: levels comparable to that induced by HK2

## substance P (RPKPQQFFGLM; ends and bridges not checked; UniProt P20366 58-68, looked up) [SP, TAC1 gene product]
Carp NK2R
  activation of carp NK2R: comparable efficacy and potency
Carp pituitary cells; 3 h
  LHβ release, short-term treatment: induced the release of LHβ
Carp pituitary cells; 24 h
  LHβ mRNA expression, prolonged treatment: inhibited LHβ mRNA expression
Carp pituitary cells
  LHβ secretion: can trigger the secretion
  PRL and SLα transcriptional levels: increase in parallel
  PRL secretion: can trigger the secretion
  SLα secretion: can trigger the secretion
rats
  pain-related behaviors: induce pain-related behaviors

## EKA/B: endokinins A and B, human TAC4 products (GKASQFFGLM; ends and bridges not checked; UniProt Q86UU9 58-67, looked up)
rats
  pain-related behaviors: induce pain-related behaviors

## neurokinin B (DMHDFFVGLM; ends and bridges not checked; UniProt Q9UHF0 81-90, looked up) [NKB, TAC3 gene product]
[2]
  LHβ secretion in zebrafish: induce LHβ secretion
Carp pituitary cells
  pituitary PRL and SLα synthesis and secretion: significantly induce pituitary PRL and SLα synthesis and secretion
Carp pituitary cells; grass carp pituitary cells
  PRL and SLα secretion and mRNA synthesis: promote PRL and SLα secretion and mRNA synthesis
  UTS1, CART2 and NMB1 mRNA expression: could stimulate

## CRH: corticortropin-releasing hormone (SEEPPISLDLTFHLLREVLEMARAEQLAQQAHSNRKLMEII; ends and bridges not checked; UniProt P06850 154-194, looked up)
mammals
  food intake and energy expenditure: reduce food intake and induce energy expenditure

## endokinin C (KKAYQLEHTFQGLL; ends and bridges not checked; UniProt Q86UU9 82-95, looked up) [EKC, human TAC4 product with FXGLL motif]
rats
  effect on SP- or EKA/B-induced pain-related behaviors: can be blocked

## endokinin D [EKD]
rats
  effect on SP- or EKA/B-induced pain-related behaviors: can be blocked

## neurokinin B-related peptide [NKBRP]
[2]
  LHβ secretion in zebrafish: induce LHβ secretion
Carp pituitary cells; grass carp pituitary cells
  PRL and SLα secretion and mRNA synthesis: promote PRL and SLα secretion and mRNA synthesis

## neurokinin A (HKTDSFVGLM; ends and bridges not checked; UniProt P20366 98-107, looked up) [NKA, TAC1 gene product]
Carp NK2R
  activation of carp NK2R: comparable efficacy and potency
Carp pituitary cells
  LHβ secretion: can trigger the secretion
  PRL and SLα transcriptional levels: increase in parallel
  PRL secretion: can trigger the secretion
  SLα secretion: can trigger the secretion

## neuromedin B [NMB]
[3]
  feeding and gastric peristalsis: inhibit feeding and gastric peristalsis
